Measured values published in US8629242B2, “Methods of inhibiting calcineurin with ApoE analogs” (Cognosci, Inc., priority 2007, dated 2014).
Where a SMILES comes first, the peptide text is derived from it. [ ]: non-standard residue; d: D form. Aib = CC(C)(N)C(=O)O

How the values were obtained:
[1] = tested on: myelin oligodendrocyte glycoprotein (MOG)-induced experimental autoimmune encephalomyelitis (EAE) model; assay: MOG-induced EAE model of multiple sclerosis, treatment after disease onset; type: in vivo, C57BL/6J mice; conditions: for maximal severity of disability / progress of the disease (clinical score) / mice exhibiting complete remission: 1 mg/kg i.p. daily from first CS≥2; for burden of disability (area under curve of clinical score): 1 mg/kg i.p., data not shown; for demyelination and infiltration of peripheral mononuclear cells in spinal cord: Luxol Fast Blue and eosin staining; for mice exhibiting complete remission: dpi 35, saline control 22%
Method: FIG. 1. […] (B) Percentage of animals in remission. Statistical analysis was conducted by ANOVA comparing the CS after day 18, which was defined as the recovery phase. FIG. 2. Representative histopathology of EAE in mice treated with COG 112 or saline control. 5 μm thick sections were stained with Luxol fast blue and eosin to reveal demyelination and peripheral infiltrates. The left panels show the pathological changes in spinal cord from cervical (A), thoracic (B) and lumbar (C) segments of a saline-treated control animal. Demyelination is shown as loss of blue staining in white matter and peripheral infiltrates are stained with purple particles. Panels D, E and F show the corresponding segments of a COG 112-treated animal where no obvious demyelination is observed. The boxed-insets of panel A and D are magnified 10× in panel G and H, respectively. FIG. 3. Profiling and quantification of T cell subset infiltrates in the spinal cords of animals on 21 days post-immunization that were treated with or without COG 112. Single-cell suspensions of spinal cord were stained with anti-CD3, CD4, and CD8 mAbs. Frequency of CD3+CD45+ cytometry (T cell) is represented in control (A) and COG112-treated (C) animals. Frequency of CD4+ and CD8+ T cells is represented in saline control (B) and COG 112-treated (D) mice. Total cell number for each of the specific cell surface markers is calculated and expressed as number per spinal cord (E). […] C57BL/6J mice were first immunized with MOG to create an EAE model. […] One of the pathological hallmarks of MS is extensive demyelination of the myelin sheath surrounding neurons accompanied by massive infiltration of peripheral leukocytes into the brain and the spinal cord, all of which contribute to the clinical manifestations of neurological disability. We further examined the effects of COG peptides on demyelination and leukocyte-influx into the spinal cords by Luxol Fast Blue (LFB) and Eosin staining. […] Panel G is a magnified view of the boxed area in A. […] Single-cell suspensions of spinal cord were stained with anti-CD3, CD4, and CD8 mAbs. As shown in FIGS. 3A & C, the frequency of CD3+ T cells in the spinal cords of mice treated with COG 112 was reduced as compared to vehicle controls on dpi 21.

[2] = tested on: oligodendrocyte precursor cells (OPC)/microglia mixed culture; assay: LPS-induced OPC cell death in OPC/microglia mixed culture; type: cell-based, rat; conditions: 1 μM, LPS 10 ng/ml; for OPC cell death by LDH and MTT assays: 24 hours
Method: FIG. 9. COG 112 protects OPCs from LPS-induced cell death in OPC/microglia mixed culture. LPS (final conc. 10 ng/ml) was added to an OPC/microglia mixed culture with or without 1 μM COG 112. The prefix peptide of COG 112, antennapedia, was used as a negative control. Cells were fixed with 4% formaldehyde and stained with the OPC marker, NG2, and counterstained with hoescht. (A) LPS-treated cultures; (B) LPS+antennapedia (Antp)-treated cultures; (C) LPS+COG 112-treated cultures; (D) Bar graph summarizing the number of NG2+ cells per field in each condition. ** p<0.01.
FIG. 19. COG 345 promotes remyelination in lysolecithin-induced demyelination model of cerebellum slices. Significant demyelination was induced by lysolecithin (0.5 mg/ml) in cerebellar slices. COG 112 or COG 345 (1 μM) was added on day 3 when full demyelination was achieved. 4 days later, the slices were fixed and double stained with myelin marker MBP (green) and Purkinje cell marker calbindin (red). (A) Untreated-slices; (B) lysolecithin-treated slices; (C) COG 112-treated slices after lysolecithin exposure; (D) COG 345-treated slices after lysolecithin exposure. E-F. ApoE analogs protect OPCs from LPS-induced cell death in OPC/microglia mixed culture. OPCs and microglia derived from brain culture of P2 rat pups were plated in 96-well plates in 1:1 ratio. LPS (10 ng/ml) together with 1 μM of the indicated ApoE analogs was added to the cultures. After 24 hours, OPC cell death was quantified by LDH assay (E) and MTT assay (F). Statistical analysis was conducted by one-way ANOVA followed by Dunnett comparison vs. LPS group. * P<0.01, ** P<0.001, n=3.
A primary culture prepared from the brains of P2 Sprague-Dawley rat pups was grown for seven days. Microglia and OPCs were shaken off from the primary culture with an orbital shaker at 150˜200 rpm. The OPCs and microglia were plated in 24-well plates at a 1:1 ratio with 5×10^4 cells per well of each cell type. After 24 hours, LPS (final conc. 10 ng/ml) was added with or without 1 μM COG 112. The prefix peptide of COG 112, antennapedia, was used as a negative control. After incubation for 72 hours, the medium was removed and cells were fixed with 4% formaldehyde and stained with the OPC marker, NG2, and counterstained with hoescht. Five fields from each of the wells were randomly chosen to count the number of NG2-positive cells.
To further assess the ability of the novel ApoE analogs to promote remyelination, the effect of the analogs on OPC survival was assessed in an OPC/microglia mixed culture. OPC and microglia derived from primary culture of P2 rat pup brain were plated on 96-well plates in 1:1 ratio. […] After 24 hours, cell death of OPC was quantified by both LDH and MTT assays.

[3] = tested on: macrophage cell line U937; assay: Superoxide release in PMA+LPS-treated U937 macrophages; type: cell-based, human; conditions: 10 μM, IFN-γ-differentiated cells
Method: FIG. 16. ApoE analogs suppress the release of nitric oxide (A) and TNF-α (B) in LPS-treated BV2 microglia cells. Series concentrations of ApoE analogs were added to culture medium together with LPS (10 ng/ml). 24 hours later, culture medium was collected for measurement of NO by Griess assay or TNF-α by ELISA. (C) ApoE analogs inhibit superoxide formation in PMA+LPS-treated human macrophage cell line U937. ApoE analogs (10 μM) were added to the cell medium of human macrophage U937 5 minutes prior to PMA+LPS treatment. The release of superoxide in culture medium was measured by Luminol assay kit (Calbiochem).
To determine the anti-oxidant effect of the different ApoE analogs, the human macrophage cell line U937 was differentiated with IFN-γ (40 U/ml) for 4 days and treated with phorbol-12-myristate-13-acetate (PMA) and LPS with or without ApoE analogs (10 μM). The release of superoxide in the medium was measured by Luminol Superoxide Assay kit (Calbiochem, CA).

| Molecule | maximal severity of disability [1] | progress of the disease (clinical score) [1] | burden of disability (area under curve of clinical score) [1] | demyelination and infiltration of peripheral mononuclear cells in spinal cord [1] | mice exhibiting complete remission [1] [%] | OPC cell death by LDH and MTT assays [2] | superoxide release [3] | LPS-induced cell death of OPCs (number of NG2-positive cells) ([2]; 72 hours) | CD4+ T cell infiltration into the spinal cord ([1]; dpi 21, vs vehicle) | frequency of CD3+ T cells in the spinal cord ([1]; dpi 21, vs vehicle) | number of CD8+ T cells in the spinal cord ([1]; dpi 21, vs vehicle) |
| --- | --- | --- | --- | --- | --- | --- | --- | --- | --- | --- | --- |
| CC(=O)N[C@@H](CC(C)C)C(=O)N[C@@H](CCCNC(=N)N)C(=O)N[C@H](C(=O)N[C@@H](CCCNC(=N)N)C(=O)N[C@@H](CC(C)C)C(=O)N[C@@H](C)C(=O)N[C@@H](CO)C(=O)N[C@@H](Cc1c[nH]cn1)C(=O)N[C@@H](CC(C)C)C(=O)N[C@@H](CCCNC(=N)N)C(=O)N[C@@H](CCCCN)C(=O)N[C@@H](CC(C)C)C(=O)N[C@@H](CCCNC(=N)N)C(=O)N[C@@H](CCCCN)C(=O)N[C@@H](CCCNC(=N)N)C(=O)N[C@@H](CC(C)C)C(=O)N[C@@H](CC(C)C)C(N)=O)C(C)C [COG 133] | significantly reduced the maximal severity of disability | significantly slowed the deleterious progress of the disease | significantly reduced the burden of disability | greatly reduced | 50 |  |  |  |  |  |  |
| CC(=O)NC(=N)NCCC[C@H](NC(=O)[C@H](CCCCN)NC(=O)[C@H](CCCNC(=N)N)NC(=O)[C@H](CC(C)C)NC(=O)[C@H](CCCCN)NC(=O)[C@H](CCCNC(=N)N)NC(=O)[C@H](CC(C)C)NC(=O)C(C)(C)NC(=O)[C@H](CO)NC(=O)[C@H](C)NC(=O)[C@H](CC(C)C)NC(=O)[C@H](CCCNC(=N)N)NC(=O)[C@@H](NC(=O)[C@H](CCCNC(=N)N)NC(=O)[C@H](CC(C)C)NC(C)=O)C(C)C)C(=O)N[C@@H](CC(C)C)C(=O)N[C@@H](CC(C)C)C(N)=O [COG 345, acetyl-LRVRLAS-Aib-LRKLRK(acetyl-Arg)LL-amide] (Ac-LRVRLAS[Aib]LRKLRKR(Ac)LL-NH2) |  |  |  |  |  | most potent | significantly inhibited superoxide release |  |  |  |  |
| Ac-RQIKIWFQNRRMKWKKCLRVRLASHLRKLRKRLL-NH2 [COG 112] | significantly reduced the maximal severity of disability | significantly slowed the deleterious progress of the disease | significantly reduced the burden of disability | greatly reduced | 71 | most potent | significantly inhibited superoxide release | significantly reduced LPS-induced cell death of OPCs | significantly reduced | reduced | no significant difference |
